# Values quoted from earlier work as cited in US6656217B1, “Medical device coated with a polymer containing a nitric oxide releasing organometallic nitrosyl compound useful for the prevention of platelet aggregation” (NovoVascular, Inc., priority 1996, dated 2003).
# System: platelet aggregation
smiles,measurement,value
[Cl][Ru]([Cl])[Cl].[N-]=O [ruthenium nitrosyl trichioride],inhibition of platelet aggregation by nitric oxide generation from light activation,failed to inhibit platelet aggregation
